Measured values published in paper PMC2149952 (British Journal of Cancer, 1998).
Where two headings read alike, the source gives them in different places.

How the values were obtained:
[1] = in vivo
Description: British Joumal of Cancer (1998) 77(5), 808-81 1 ? […] Penclomedine administration by 1-h intravenous infusion on 5 consecutive days was repeated 3 weekly in the absence of dose-limiting toxicity (DLT) or disease progression. Five dose levels were investigated (22.5-340 mg m-2 day-'). Eight men and eight women were entered, median age 59 years (range 39-73 years), with good performance status (ECOG 0/1) in 11 patients. A total of 13 out of 16 patients had received previous chemotherapy. […] Neurotoxicity developed during the 1-h infusion and persisted for a variable period (maximum 5 h) after infusion. […] Penclomedine pharmacokinetic studies confirmed preclinical evidence of extensive apparent distribution (931 m-2) and rapid clearance (41 1 h-1m-2). […] Therefore, an experimental formulation of penclomedine as a 10% oil in water emulsion was developed for intravenous (i.v.) administration. […] Single treatments were effective when administered intra- venously, but the dose used in a rapid bolus push was limited by acute lethality. […] Penclomedine has also been tested in drug-resistant cell lines (doxorubicin, vincristine, cisplatinum, methotrexate, Ara-C and 5-FU) including the multidrug-resistant (MDR) phenotype. […] Preclinical toxicology studies were performed in mice, rats, and dogs. In mice, the maximum tolerated dose (MTD) was 150 mg kg-' (450 mg m-2) as a single i.v. dose and 80 mg kg-' day-' (240 mg m-2 day-'; total dose 1200 mg m-2) on a daily x 5 schedule. […] 808 Phase I trial of penclomedine 809 The aims of this phase I study were: (a) to determine the MTD of penclomedine when administered i.v. once daily for 5 days every 21 days; (b) to identify the toxicity profile of penclomedine and to determine whether this is predictable, tolerable and reversible, and to define dose-limiting toxicities in patients; (c) to determine the pharmacokinetics of penclomedine at different dose levels; (d) to define a safe dose for subsequent phase II studies of anti-tumour activity; and (e) to observe and record any possible therapeutic effectiveness of penclomedine. MATERIALS AND METHODS This was an open non-randomized study with dose escalation that continued until the dose-limiting toxicity was defined. A minimum of three patients were treated at each dose level. […] All patients were required to give written informed consent. Before commencing the study ethical approval was obtained from the Medicine and Clinical Oncology Research Ethics Sub-Committee of Lothian Health Board (ref. MCO/ 105/92) and the study was conducted according to the Helsinki Declaration. This trial was conducted under the auspices of the Cancer Research Campaign Phase I/II Clinical Trials Committee. […]

malignancy = assay: Phase I study: tumour response (UICC criteria); assay type: in vivo; details: 16 patients, all dose levels
Description: British Joumal of Cancer (1998) 77(5), 808-81 1 ? […] Penclomedine administration by 1-h intravenous infusion on 5 consecutive days was repeated 3 weekly in the absence of dose-limiting toxicity (DLT) or disease progression. Five dose levels were investigated (22.5-340 mg m-2 day-'). Eight men and eight women were entered, median age 59 years (range 39-73 years), with good performance status (ECOG 0/1) in 11 patients. A total of 13 out of 16 patients had received previous chemotherapy. […] Neurotoxicity developed during the 1-h infusion and persisted for a variable period (maximum 5 h) after infusion. […] Penclomedine pharmacokinetic studies confirmed preclinical evidence of extensive apparent distribution (931 m-2) and rapid clearance (41 1 h-1m-2). […] Therefore, an experimental formulation of penclomedine as a 10% oil in water emulsion was developed for intravenous (i.v.) administration. […] Single treatments were effective when administered intra- venously, but the dose used in a rapid bolus push was limited by acute lethality. […] Penclomedine has also been tested in drug-resistant cell lines (doxorubicin, vincristine, cisplatinum, methotrexate, Ara-C and 5-FU) including the multidrug-resistant (MDR) phenotype. […] Preclinical toxicology studies were performed in mice, rats, and dogs. […]

[2] = Plasma pharmacokinetics in phase I patients (HPLC, two-compartment model); assay type: in vivo
Description: British Joumal of Cancer (1998) 77(5), 808-81 1 ? […] Penclomedine administration by 1-h intravenous infusion on 5 consecutive days was repeated 3 weekly in the absence of dose-limiting toxicity (DLT) or disease progression. Five dose levels were investigated (22.5-340 mg m-2 day-'). Eight men and eight women were entered, median age 59 years (range 39-73 years), with good performance status (ECOG 0/1) in 11 patients. A total of 13 out of 16 patients had received previous chemotherapy. […] Neurotoxicity developed during the 1-h infusion and persisted for a variable period (maximum 5 h) after infusion. […] Penclomedine pharmacokinetic studies confirmed preclinical evidence of extensive apparent distribution (931 m-2) and rapid clearance (41 1 h-1m-2). […] Therefore, an experimental formulation of penclomedine as a 10% oil in water emulsion was developed for intravenous (i.v.) administration. […] Single treatments were effective when administered intra- venously, but the dose used in a rapid bolus push was limited by acute lethality. […] Penclomedine has also been tested in drug-resistant cell lines (doxorubicin, vincristine, cisplatinum, methotrexate, Ara-C and 5-FU) including the multidrug-resistant (MDR) phenotype. […] Preclinical toxicology studies were performed in mice, rats, and dogs. In mice, the maximum tolerated dose (MTD) was 150 mg kg-' (450 mg m-2) as a single i.v. dose and 80 mg kg-' day-' (240 mg m-2 day-'; total dose 1200 mg m-2) on a daily x 5 schedule. […] 808 Phase I trial of penclomedine 809 The aims of this phase I study were: (a) to determine the MTD of penclomedine when administered i.v. once daily for 5 days every 21 days; (b) to identify the toxicity profile of penclomedine and to determine whether this is predictable, tolerable and reversible, and to define dose-limiting toxicities in patients; (c) to determine the pharmacokinetics of penclomedine at different dose levels; (d) to define a safe dose for subsequent phase II studies of anti-tumour activity; and (e) to observe and record any possible therapeutic effectiveness of penclomedine. MATERIALS AND METHODS This was an open non-randomized study with dose escalation that continued until the dose-limiting toxicity was defined. A minimum of three patients were treated at each dose level. […] All patients were required to give written informed consent. Before commencing the study ethical approval was obtained from the Medicine and Clinical Oncology Research Ethics Sub-Committee of Lothian Health Board (ref. MCO/ 105/92) and the study was conducted according to the Helsinki Declaration. This trial was conducted under the auspices of the Cancer Research Campaign Phase I/II Clinical Trials Committee. […] Adequate bone marrow, hepatic and renal function was required (WBC > 3 x 109 1-1, platelet count > 100 x 109 1-1, serum creatinine < 120 gmmol 1-l, bilirubin < 30 gmol 1-1, and other liver function tests within twice the upper limit of normal (unless known to be related to liver metastases)). Patients were deemed ineligible in the event of pregnancy or lactation, previous chemotherapy or radiotherapy within the last 4 weeks (6 weeks for nitrosoureas or mitomycin C), the presence of another non-malignant disease that in the opinion of the investi- gator was incompatible with this protocol, concurrent administra- tion of another investigational drug, or cytotoxic, hormonal or biological therapy. Patients with brain metastases or primary brain tumours were excluded and also patients with epilepsy or chronic neurological disorders that might interfere with the assessment of neurological toxicity. Penclomedine was formulated as a de novo emulsion (in 100 ml: soybean oil, […]; lecithin, 30 mg; glycerin 20 mg and water for injection) and stored as intact vials under refrigeration (2-8?C). Penclomedine emulsions were diluted up to 1:10 using 5% dextrose solution. […] Penclomedine was supplied by the NCI DCT under the special foreign exemption mechanism established with the FDA. […]

[3] = set-up: method as in Reid et al, 1992; details: ref Reid et al, 1992, cited from earlier work
[4] = set-up: method as in Reid et al, 1992; details: ref Reid et al, 1992; cited from earlier work
[5] = set-up: method as in personal communication, AC Smith, NCI; details: mice, ref personal communication, AC Smith, NCI, cited from earlier work
cerebellum = tested on: cerebellum; set-up: method as in O'Reilly et al, 1996a; details: ref O'Reilly et al, 1996a, cited from earlier work
[6] = tested on: human MX-1 mammary tumour xenograft; details: cited from earlier work
[7] = tested on: subrenal capsule xenograft of the human MX-1 mammary carcinoma; set-up: method as in Harrison 1991; details: oral 300 mg kg-1 day-1 on days 13, 17 and 21; for 40 days after the last treatment; ref Harrison 1991; cited from earlier work
[8] = tested on: human H82 small cell lung carcinoma xenografts; set-up: method as in Harrison 1991; details: oral 445 mg kg-1 day-1; ref Harrison 1991; cited from earlier work
[9] = tested on: drug-resistant cell lines; set-up: method as in Harrison et al, 1991; details: ref Harrison et al, 1991, cited from earlier work
[10] = tested on: mouse CD8F, mammary carcinoma; set-up: method as in Plowman et al, 1989; details: ref Plowman et al, 1989; cited from earlier work
[11] = set-up: method as in Prankerd et al, 1989; details: ref Prankerd et al, 1989; cited from earlier work
[12] = set-up: method as in O'Reilly et al, 1996b; details: ref O'Reilly et al, 1996b; cited from earlier work
[13] = cited from earlier work
[14] = mean of 10 patients, 150-340 mg m-2 day-1, initial 24 h

COc1nc(C(Cl)(Cl)Cl)c(Cl)c(OC)c1Cl [penclomedine, 3,5-Dichloro-2,4-dimethoxy-6-(trichloromethyl)pyridine]
persistence of neurotoxicity after infusion (maximum) ([1]; both, human): ≤ 5 h
dose at which dose-limiting toxicity occurred ([1]; both, human, iv, 5 days): 340 mg m-2 day-1
antiproliferative toxicities (myelosuppression, mucositis) [1]: No antiproliferative toxicities were noted
dose-limiting toxicity (DLT) ([1]; iv): Neurotoxicity (cerebellar ataxia and dizziness)
anti-tumour responses (malignancy): no anti-tumour responses were documented
dose dependence of total body clearance ([2]; 150-340 mg m-2 day-1): did not vary with dose
metabolites in plasma of patients ([2]; human, in vivo): not detected
apparent distribution volume (mean Vc + Vp) ([2]; human, in vivo, iv): 93 l m-2
half-life ([2]; human, in vivo, patients, read-out: apparent elimination phase half-life (t1/2 beta) (converted)): 2.4 h
half-life ([2]; human, in vivo, patients, read-out: initial distribution phase half-life (t1/2 alpha)): 0.2 h
Cld (distributional clearance), mean [2, 14]: 43 l h-1 m-2
Clt (total body clearance), mean [2, 14]: 41 l h-1 m-2
clearance ([2]; patients, i.v. infusion, abstract): 41 l h-1 m-2
metabolism of radiolabelled penclomedine ([3]; after both i.v. and oral administration): extensive
clearance ([3]; mice, parent drug): 114 ml min-m m-2
half-life ([3]; mice, parent drug): 1.15 h
volume of distribution ([3]; mice, parent drug): 4.8 l m-2
oral bioavailability of the parent compound ([3]; mice): 2%
in vitro metabolism [4]: subject to metabolism under both oxidative and reductive conditions
dose-limiting toxicity ([5]; daily x 5 schedule): bone marrow suppression
maximum tolerated dose (MTD), total dose ([5]; daily x 5 schedule): 1200 mg m-2
dose-limiting toxicity ([5]; single dose schedule): neurological
cerebellar finding in preclinical models (cerebellum; after intraperitoneal administration): Purkinje cell loss
single dose producing visible pathological changes in the cerebellum (cerebellum; rats, intraperitoneal injection, may be irreversible): ≥ 150 mg kg-1
tumour-free survivors ([6]; advanced stage MX-1 mammary carcinoma, oral 135 mg kg-1 day-1 for 5 days, oil in water emulsion, ref Harrison et al, 1991): ten out of ten
anti-tumour activity ([6]; human MX-1 mammary tumour xenograft, ref Plowman et al, 1989): good activity
tumour regression [7]: complete regression of all tumours
complete regressions [8]: six out of ten
partial regressions [8]: four out of ten
activity in resistant versus wild-type cell lines ([9]; lines resistant to doxorubicin, vincristine, cisplatinum, methotrexate, Ara-C and 5-FU, including MDR phenotype): equivalent activity
sensitivity of AMSA-resistant line [9]: collaterally sensitive
sensitivity of L-PAM-resistant line [9]: resistant
anti-tumour activity [10]: good activity
solubility in non-polar solvents and lipids [11]: soluble
solubility in water [11]: poorly soluble
chemical species found in rat brain [12]: predominant chemical species
toxicity at the MTD ([13]; beagle dogs, 90 mg kg-1, ref Dixit et al, 1992): reversible myelosuppression
plasma penclomedine concentrations ([13]; beagle dogs, 90 mg kg-1 dose level, not associated with neurotoxicity, ref Dixit et al, 1992): 6 to 9 µg/mL
maximum tolerated dose (MTD) ([13]; beagle dogs, single 5-h infusion, ref Dixit et al, 1992): 90 mg/kg
toxicity at higher dosages ([13]; dog, in vivo): dose-limiting neurotoxicity
